Measurements from patent publication US8461122B2, “Derivatives of morphine-6-glucuronide, preparation method thereof and use of same in therapeutics” (Sanofi, priority 2008, dated 2013).
Like-named read-outs stand apart in the source and are kept apart here.

System: male Swiss mice
Conditions: tail-flick; for ED50 60 min. post-administration: Table 2 (sc); for Duration of action / % MPE max: subcutaneous
Method: Tests consisting in measuring the in vivo activity of the compounds of the invention on a nociceptive reflex response were performed. In this approach, the latency of the animal's nociceptive reflex response is measured as a pain indicator.
The analgesic activity was determined by means of the “tail-flick” test in male Swiss mice (Iffa Credo). This test is based on the spontaneous nociceptive reflex of removal of the animal's tail caused by a painful heat stimulus (infrared source). The “tail-flick” test (D'Amour-Smith test, 1941, Pharmacol. Exp. Ther.; 72: 74-79) consists, after administering a product, in placing a mouse's tail at the focal point of the infrared source so as to produce a nociceptive heat stimulus (surface temperature of about 55-60° C.). The mouse's reaction time (RT) (latency between the moment when the light beam is switched on and the moment when the mouse removes its tail) was measured in duplicate at different times ranging from 20 minutes to 120 minutes after administration of the product. The heat intensity is regulated such that this removal reflex is between 0.5 and 3.5 seconds in the control animals, and arbitrarily represents the criterion for minimum analgesia (0%). Two reaction time measurements were taken before administration of the product for each mouse, to establish a baseline measurement time. A maximum time of 8 seconds was chosen as the maximum reaction time so as not to induce tissue damage by burning the animals, and arbitrarily represents the criterion for maximum analgesia (100%). The reaction time is increased by the analgesics relative to a control animal not receiving any treatment. The products were administered subcutaneously and orally at doses of between 1.25 and 30 mg/kg (expressed as salt).
The percentage of analgesic activity (% MPE) is determined by the following formula: % MPE=(RTpost-administration−RTpre-administration)*100/(RTmax−RTpre-administration)

[1] = dose 1.25 mg/kg (expressed as salt)
[2] = dose 10 mg/kg (expressed as salt)

| Molecule | ED50 60 min. post-administration [mg/kg] | Duration of action (dose 1.25 mg/kg) | % MPE max [1] | Duration of action (dose 5 mg/kg) | % MPE max (dose 5 mg/kg (expressed as salt)) | ED50 at 60 minutes (oral, 60 minutes) | percentage of maximum analgesic activity (% MPE max index) (oral, dose 10 mg/kg) [%] | Duration of action (dose 10 mg/kg) | % MPE max [2] |
| --- | --- | --- | --- | --- | --- | --- | --- | --- | --- |
| CN1CC[C@]23c4c5ccc(O)c4O[C@H]2[C@@H](O[C@@H]2O[C@H](c4nn[nH]n4)[C@@H](O)[C@H](O)[C@H]2O)C=C[C@H]3[C@H]1C5.O=C(O)C(F)(F)F [Compound 2, Morphin-6-yl 5-C-(tetrazol-5-yl)-β-d-xylopyranoside trifluoroacetate] | <1.25 | >120 (1.25) minutes | 100 (1.25) % | – | – | – | – | – | – |
| Morphin-6-yl 5-C-(2-methyl-1,3,4-oxadiazol-5-yl)-α/β-D-xylopyranoside trifluoroacetate [Compound 3] | 3.2 | – | – | >120 (5) minutes | 100 (5) % | – | – | – | – |
| Cc1nnc(C2O[C@@H](O[C@H]3C=C[C@H]4[C@H]5Cc6ccc(O)c7c6[C@@]4(CCN5C)[C@H]3O7)[C@H](O)[C@@H](O)[C@@H]2O)o1.O=C(O)C(F)(F)F (stereo partly drawn) [Compound 5, Morphin-6-yl 5-C-(2-methyl-1,3,4-oxadiazol-5-yl)-β-D-xylopyranoside trifluoroacetate] | <1.25 | >120 (1.25) minutes | 100 (1.25) % | – | – | less than 2.5 mg/kg | 78 | – | – |
| Morphin-6-yl 5-C-(tetrazol-5-yl)-αβ-D-xylopyranoside trifluoroacetate [Compound 1] | 10 | – | – | – | – | – | – | >120 (10) minutes | 50 (10) % |
| Cc1nnc(C2O[C@H](O[C@H]3C=C[C@H]4[C@H]5Cc6ccc(O)c7c6[C@@]4(CCN5C)[C@H]3O7)[C@H](O)[C@@H](O)[C@@H]2O)o1.O=C(O)C(F)(F)F (stereo partly drawn) [Compound 4, Morphin-6-yl 5-C-(2-methyl-1,3,4-oxadiazol-5-yl)-α-D-xylopyranoside trifluoroacetate] | 8 | – | – | – | – | – | – | 90 (10) minutes | 65 (10) % |
